Measured values published in article PMC8252180, “In vitro anti-Toxoplasma gondii efficacy of synthesised benzyltriazole derivatives” (The Onderstepoort Journal of Veterinary Research, 2021).
Values after ≈ are worked out from the molar mass of the structure shown. Read-outs that look alike come from different tables or passages of the source.

What was measured:
Toxoplasma gondii RH-GFP = test: In vitro growth inhibition assay (RH-GFP fluorescence in infected HFF cells); type: cell-based; conditions: for inhibition at 50 µg/mL / IC50: Toxoplasma gondii; for inhibition at 50 µg/mL: HFF, read-out: % Parasite inhibition (mean ± s.d.); for IC50: read-out: IC50 (anti-toxoplasmosis activity)
Protocol: Briefly, HFF cells were seeded into 96-well plates (1 × 10^4 cells/well) and cultured for 48 h. Expressing green fluorescent protein (GFP) type I strain RH (RH-GFP) tachyzoites (Nishikawa et al. [2003]) were added to the wells (5 × 10^4 tachyzoites/well). After a 4-h incubation, extracellular parasites were removed by washing. Then, chemical compounds at a final concentration of 50 µg/mL were added. […] After a 72-h incubation, the fluorescence intensity of RH-GFP was measured to determine the parasite growth. Compounds with parasite inhibition ≥ 80% were further screened for dose–response effects at final concentrations of 3.125 µg/mL, 6.25 µg/mL, 12.5 µg/mL, 25 µg/mL and 50 µg/mL.

[1] = Cytotoxicity analysis on HFF cells (CCK-8); type: cell-based, human; conditions: human, human foreskin fibroblasts (HFF) cells; test compounds at 50 µg/mL
Protocol: (§1) The cytotoxicity of the chemical compounds on human foreskin fibroblasts (HFF) cells was determined by using the cell counting kit-8 (CCK-8) (Dojindo Molecular Technologies, Inc. Japan) according to the manufacturer’s instructions. The compounds were dissolved in dimethyl sulfoxide (DMSO). HFF cells were plated in 96-well plates at a density of 1 × 10^4 cells per well. After a 48-h incubation at 37 °C in a 5% CO2 atmosphere, cells were exposed to various concentrations of tested chemical compounds (1 µg/mL, 5 µg/mL, 10 µg/mL, 25 µg/mL, 50 µg/mL and 100 µg/mL). Culture medium containing the same volume of DMSO was used as a negative control. After 24 h, the surviving cells were determined by adding CCK-8 reagent. Cell viability was measured based on the absorbance at 450 nm after an additional 4-h incubation.

[2] = tested on: human foreskin fibroblasts (HFF) cells; test: Cytotoxicity analysis on HFF cells (CCK-8); type: cell-based; conditions: for Effect on host cell viability / growth: HFF cells, 0-100 µg/mL, 24 h
Protocol: as §1

Vero cell viability = type: cell-based; conditions: African green monkey, Vero cells; test compounds at 100 µg/mL
Description: (§2) TABLE 2 Screening of chemical compounds for anti-RH-GFP efficacy. | column: % viability Vero ^¶

[3] = tested on: Toxoplasma gondii RH-GFP tachyzoites; type: cell-based; conditions: for Infection rate (SAG1-positive Vero cells per 100 Vero cells): non-treated 11.3% ± 0.6%; for Activity against extracellular and intracellular parasites: invasion and replication tests, FJS-302 10 µg/mL, FJS-303 and FJS-403 12.5 µg/mL, SFZ 1 mg/mL
Protocol: Vero cells were seeded on 12-well plates as described here, and purified RH-GFP tachyzoites were treated with FJS-302, FJS-303, FJS-403 or FJS-INH for 1 h at 37 °C. Then treated parasites were added to Vero cells in a 12-well plate (2 × 10^5 tachyzoites per well). At 2 h postinfection, the extracellular parasites were removed by washing, and the infected Vero cells were further incubated for 24 h at 37 °C in a 5% CO2 incubator. After incubation, IFAT was conducted as described here to evaluate the effects of the chemical compounds on parasite invasion. The infection rates were calculated as follows: [number of SAG1-positive Vero cells]/[100 randomly selected Vero cells]×100 [Eqn 1]
In addition, at least 10 fields were observed per group to measure the average number of parasites per field.

[4] = tested on: Toxoplasma gondii PruΔku80Δhxgprt; test: Bradyzoite differentiation assay (Vero cells, IFAT); type: cell-based; conditions: 48 h; for Antitachyzoite activity: PruΔku80Δhxgprt; for Bradyzoite number: compounds 50 µg/mL (Figure 4 legend)
Protocol: Vero cells were plated in 12-well plates at a density of 1 × 10^5 cells per well and incubated for 24 h at 37 °C in a 5% CO2 atmosphere. Then, purified PruΔku80Δhxgprt tachyzoites were added to Vero cells at 1 mL/well (parasites per host cell ratio = 1:1). Two hours postinfection, chemical compounds were added in EMEM supplemented with 8% FBS. Indirect fluorescent antibody test was conducted after a 48-h incubation. Tachyzoites were stained by using anti-SAG1 mouse polyclonal antibody (Guo et al. [2019]), and bradyzoites were detected by using anti-GFP rabbit polyclonal antibody (Medical & Biological Laboratories CO., LDT, Japan). Secondary antibody Alexa Fluor 594-conjugated goat anti-mouse IgG (Invitrogen, United States) diluted 1:1000 and Alexa Fluor 488-conjugated goat anti-Rabbit IgG (Invitrogen, United States) diluted 1:1000 were used. Five fields per well were observed by using an All-in-one Fluorescence Microscope (BZ-9000, Keyence, Japan), and the percentage of bradyzoites was calculated.

Vero cells = test: Vero cell viability; type: cell-based; conditions: sulphadiazine at 1 mg/mL
Description: as §2

[5] = tested on: Toxoplasma gondii RH strain; conditions: ref De Oliveira et al. [2009]; cited from earlier work
HFF cells = conditions: 200 µg/mL of SFZ; ref De Oliveira et al. [2009]; cited from earlier work
[6] = 72 h, test compounds at 50 µg/mL, 72 h, RH-GFP-infected HFF cells
[7] = RH-GFP-infected HFF cells, 72 h, 3.125-50 µg/mL
[8] = test compounds at 50 µg/mL, 72 h, RH-GFP-infected HFF cells
[9] = parasites pretreated with 12.5 µg/mL
[10] = parasites pretreated with 12.5 µg/mL for 1 h

SMILES | inhibition at 50 µg/mL (Toxoplasma gondii RH-GFP; [6]) | IC50 (Toxoplasma gondii RH-GFP; [7]) | % Parasite inhibition (mean ± s.d.) (Toxoplasma gondii RH-GFP; [8]) | viability at 24 h, 50 µg/mL [1] | Effect on host cell viability / growth [2] | viability at 100 µg/mL (Vero cell viability) | Antitachyzoite activity [4] | Activity against extracellular and intracellular parasites [3] | other results
NNC(=O)c1ccncc1 [FJS-INH, isoniazid, reference compound] | > 80% | 19.8 µg/mL (≈ 144 µM) | 87.2 ± 4.6% | 118% | no significant suppression on host cell growth | 98% | significant antitachyzoite activity |  | Potency relative to the leading BnTz derivative (Toxoplasma gondii RH-GFP; T. gondii growth inhibition, from IC50): threefold less potent; Infection rate (SAG1-positive Vero cells per 100 Vero cells) ([3]; parasites pretreated with 50 µg/mL for 1 h): 10.7% ± 0.5%
Nc1ccc(S(=O)(=O)Nc2ncccn2)cc1 [SFZ, sulphadiazine, reference compound] |  |  |  |  |  |  |  | affected only intracellular parasite | IC50 (anti-toxoplasmosis activity) (Toxoplasma gondii RH-GFP; [7]): 59.5 µg/mL (≈ 238 µM); % Parasite inhibition (mean ± s.d.) (Toxoplasma gondii RH-GFP; sulphadiazine at 1 mg/mL, 72 h, RH-GFP-infected HFF cells): 73.7 ± 4.6%; % viability HFF ([2]; sulphadiazine at 1 mg/mL): 105.19%; % viability Vero (Vero cells): 92.11%; Infection rate (SAG1-positive Vero cells per 100 Vero cells) ([3]; parasites pretreated with 1 mg/mL for 1 h): 11.7% ± 1.3%; Bradyzoite number (GFP-positive parasitophorous vacuoles per field) ([4]; SFZ 1 mg/mL, no treatment 6.5 ± 1.5): 23.7 ± 6.0; Bradyzoite rate (bradyzoite differentiation) ([4]; SFZ 1 mg/mL, no treatment 8.2% ± 1.9%): 46.6% ± 7.9%; IC50 of SFZ on RH strain [5]: 70 µg/mL; Decrease of viability of HFF cells (HFF cells): 28%
CCCCCCCCc1cn(Cc2ccc(C)cc2)nn1 [FJS-303] | > 80% | 6.8 µg/mL (≈ 23.8 µM) | 96.3 ± 3.9% | 110% | no significant suppression on host cell growth | 101% | significant antitachyzoite activity | effective against extra- and intracellular parasites | Number of parasites per field after pretreatment [3, 9]: significantly reduced; Infection rate (SAG1-positive Vero cells per 100 Vero cells) [3, 10]: 5.8% ± 0.5%; Bradyzoite number [4]: did not increase the bradyzoite number
Brc1ccc(Cn2cc(CSc3ccccc3)nn2)cc1 [FJS-105] | 60.5 ± 6.1% |  |  | 100% |  | 103% |  |  | 
CCCCc1cn(Cc2ccc(C)cc2)nn1 [FJS-301] | 57.7 ± 3% |  |  | 96.2% |  | 85.4% |  |  | 
CCCCCCCCCCc1cn(Cc2ccc(Br)cc2)nn1 [FJS-104] | 62.2 ± 6% |  |  | 100% |  | 103% |  |  | 
CCCCCCCCCCc1cn(Cc2ccc(C(F)(F)F)cc2)nn1 [FJS-404] | 64.5 ± 1.8% |  |  | 100% |  |  |  |  | 
FC(F)(F)c1ccc(Cn2cc(CSc3ccccc3)nn2)cc1 [FJS-405] | 35 ± 5% |  |  | 100% |  | 103% |  |  | 
CCCCCCCCc1cn(Cc2ccc(C(F)(F)F)cc2)nn1 [FJS-403] | > 80% | 7 µg/mL (≈ 20.6 µM) | 91.5 ± 1.7% | 103% | no significant suppression on host cell growth | 102% | significant antitachyzoite activity | effective against extra- and intracellular parasites | Number of parasites per field after pretreatment [3, 9]: significantly reduced; Infection rate (SAG1-positive Vero cells per 100 Vero cells) [3, 10]: 5.2% ± 0.7%; Bradyzoite number [4]: did not increase the bradyzoite number
CCCCCCc1cn(Cc2ccc(C)cc2)nn1 [FJS-302] | > 80% | 5.6 µg/mL (≈ 21.8 µM) | 95.9 ± 4.6% | 85% | no significant suppression on host cell growth | 86.1% | significant antitachyzoite activity | effective against extra- and intracellular parasites | Number of parasites per field after pretreatment ([3]; parasites pretreated with 10 µg/mL): significantly reduced; Infection rate (SAG1-positive Vero cells per 100 Vero cells) ([3]; parasites pretreated with 10 µg/mL for 1 h): 6.2% ± 0.5%; Bradyzoite number [4]: did not increase the bradyzoite number
c1ccc(Cn2cc(CSc3ccccc3)nn2)cc1 [FJS-205] | 60.2 ± 5.1% |  |  | 100% |  | 101% |  |  | 
CCCCc1cn(Cc2ccccc2)nn1 [FJS-201] | 64.6 ± 6.8% |  |  | 100% |  | 99.3% |  |  | 
